Measured values as given in PubChem BioAssay (NCI).
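Step 1: Grow cells in 96-well plates. Step 2: Expose to compound for 48 hours at 5 concentrations. Step 3: Interpolate endpoints linearly; if unreached, use highest concentration. Definition used: TGI = concentration required for complete inhibition of growth.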

Legend:
Assay in all cases: inhibition of tumour cell growth, NCI panel, 48 h
[1] = tested on: HL-60(TB) leukemia
[2] = tested on: NCI-H522 lung
[3] = tested on: 786-0 renal
[4] = tested on: SW-620 colon
[5] = tested on: PC-3 prostate
[6] = tested on: SF-295 CNS
[7] = tested on: MOLT-4 leukemia
[8] = tested on: HCT-15 colon
[9] = tested on: BT-549 breast
[10] = tested on: MDA-N
[11] = tested on: NCI/ADR-RES ovarian
[12] = tested on: M14 melanoma
[13] = tested on: SR leukemia
[14] = tested on: COLO 205 colon
[15] = tested on: CCRF-CEM leukemia
[16] = tested on: UACC-257 melanoma
[17] = tested on: MDA-MB-231 breast
[18] = tested on: HS 578T breast
[19] = tested on: CAKI-1 renal
[20] = tested on: SK-OV-3 ovarian
[21] = tested on: NCI-H23 lung
[22] = tested on: NCI-H226 lung
[23] = tested on: HOP-62 NSCLC
[24] = tested on: MCF7 breast
[25] = tested on: U251 CNS
[26] = tested on: RPMI-8226 leukemia
[27] = tested on: OVCAR-4 ovarian
[28] = tested on: SN12C renal
[29] = tested on: IGROV1 ovarian
[30] = tested on: K-562 leukemia
[31] = tested on: SF-539 CNS
[32] = tested on: SK-MEL-5 melanoma
[33] = tested on: A498 renal
[34] = tested on: UO-31 renal
[35] = tested on: HCC-2998 colon
[36] = tested on: RXF 393 renal
[37] = tested on: OVCAR-3 ovarian
[38] = tested on: SNB-19 CNS
[39] = tested on: A549 NSCLC
[40] = tested on: OVCAR-8 ovarian
[41] = tested on: HOP-92 NSCLC
[42] = tested on: EKVX NSCLC
[43] = tested on: LOX IMVI melanoma
[44] = tested on: MDA-MB-435
[45] = tested on: TK-10 renal
[46] = tested on: SNB-75 CNS
[47] = tested on: MALME-3M melanoma
[48] = tested on: OVCAR-5 ovarian
[49] = tested on: DU-145 prostate
[50] = tested on: UACC-62 melanoma
[51] = tested on: SF-268 CNS
[52] = tested on: KM12 colon
[53] = tested on: SK-MEL-28 melanoma
[54] = tested on: NCI-H460 lung
[55] = tested on: HT29 colon
[56] = tested on: HCT-116 colon
[57] = tested on: ACHN renal
[58] = tested on: SK-MEL-2 melanoma
[59] = tested on: T-47D breast

Measured: TGI

CC(C)NC(=O)OCc1c(COC(=O)NC(C)C)c(-c2cc[n+](COC(=O)CC(C)(C)C)cc2)n2c1CCC2
not listed: [43] | [44] | [45] | [46] | [47] | [48] | [49] | [50] | [51] | [52] | [53] | [54] | [55] | [56] | [57] | [58] | [59]
> 100 µM: all other assays above

O=C(C(=O)c1cc(-c2ccccc2)nc2ccc3ccccc3c12)c1ccccc1
40.7 µM: [46]
39 µM: [56]
49.8 µM: [27]
78.7 µM: [1]
81.4 µM: [18]
not listed: [2] | [41] | [58] | [59]
> 100 µM: all other assays above

CCn1cc(C(=O)O)c(=O)c2ccc(C)nc21
not listed: [9] | [20] | [33] | [36] | [50]
> 100 µM: all other assays above

NC(C/C=C/P(=O)(O)O)C(=O)O (stereo not drawn)
32.8 µM: [19]
not listed: [3] | [9] | [22] | [23] | [26] | [33] | [47]
> 100 µM: all other assays above

O=c1c(Nc2ccccc2)cn(CCOc2ccccc2)c(=O)n1CCOc1ccccc1
54.4 µM: [27]
76.8 µM: [18]
99.5 µM: [2]
83.4 µM: [41]
41.3 µM: [23]
67.6 µM: [51]
72.3 µM: [9]
not listed: [17] | [20] | [22] | [31] | [40] | [45] | [46] | [58] | [59]
> 100 µM: all other assays above
